The record followed here is patent US10227342B2 (ARIAD PHARMACEUTICALS, INC., priority 2014, dated 2019).

What all share (assay type): cell-based
Assay [1] addresses human EGFR L858R and T790M double mutation (LT) (Homo sapiens (Human), UniProt P00533, L858R/T790M). Description: Ba/F3-EGFR L858R/T790M cell anti-proliferative assay (CellTiter 96 MTS, 72 h).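 For all read-outs here: Ba/F3 cells carrying the EGFR L858R/T790M double mutant are able to grow without IL-3.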 The note with it: Ba/F3-EGFR L858R/T790M cells; for IC50: read-out: EGFR exon 21 L858R and T790M mutation IC50.
Assay [2] addresses human EGFR exon 20 insertion ASV (V769_D770insASV) (Homo sapiens (Human), UniProt P00533, INS769ASV). Description: Ba/F3-EGFR-Exon20-ASV cell anti-proliferative assay (CellTiter 96 MTS, 72 h).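 Note: Ba/F3 cells bearing the EGFR exon 20 ASV insertion, a line able to proliferate without IL-3.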 The note with it: Ba/F3-EGFR-Exon20-ASV cells.
For assay [3], the target named is Her2 exon 20 YVMA insertion (A775_G776ins YVMA) (Homo sapiens (Human), UniProt P04626, INS775YVMA). Kind of assay: Ba/F3-Her2 Exon20 YVMA cell anti-proliferative assay (CellTiter 96 MTS, 72 h). The note with it: Ba/F3-Her2 Exon20 YVMA cells. An excerpt:
Ba/F3 cells expressing Her2 Exon20 YVMA insertions (named Ba/F3-Her2 Exon20 YVMA) can proliferate in the absence of IL-3.

The target of assay [4] is human EGFR E746-A750 deletion and T790M Mutation (DT) (Homo sapiens (Human), UniProt P00533, DEL746-750/T790M). Description: Ba/F3-EGFR-Del/T790M cell anti-proliferative assay (CellTiter 96 MTS, 72 h). The conditions noted are these: Ba/F3-EGFR-Del/T790M cells; for IC50: read-out: EGFR exon 19 deletion and T790M mutation IC50.
Method: An expression vector, pLVX-IRES puro (Clontech) coding for human EGFR E746-A750 deletion and T790M Mutation, was transfected into HEK293 cells by the Trans-Lentiviral ORF Packaging System (Thermo Scientific), to produce virus encoding EGFR exon 19 deletion and T790M mutations. […] Ba/F3 cells expressing EGFR E746-A750 deletion and T790M Mutation (named Ba/F3-EGFR-Del/T790M) can proliferate in the absence of IL-3. The anti-proliferative activity of compounds was determined as follows: BaF3-EGFR-Del/T790M cells seeded in 96 well plates (2500 cells/well) were treated with test compound (dissolved in DMSO) at a series of concentrations (4-fold dilution, top concentration: 10,000 nM). The plates were incubated for 72 h in a 37° C. incubator with 5% CO2, and the number of viable cells in each well were measured indirectly by CellTiter 96® Aqueous One Solution Cell Proliferation Assay (Promega; this assay is a colorimetric method for determining the number of viable cells through measurement of their metabolic activity by detection of enzymatic conversion of tetrazolium salts into blue formazan derivatives). Reagent (20 μL) was added into each well, and the plates were returned to the incubator for 2 h. The absorbance in each well was then measured at 490 nm using an Envision plate reader (Perkin Elmer).
Assay [5] addresses human EGFR exon 20 insertion NPG (H773_V774insNPG) (Homo sapiens, UniProt P00533, INS773NPG, cells depend on it). Description: Ba/F3-EGFR-Exon20-NPG cell anti-proliferative assay (CellTiter 96 MTS, 72 h). The note with it: read-out: EGFR exon 20 NPG insertion IC50.
Method: Ba/F3 cells expressing EGFR exon 20 insertions (named Ba/F3-EGFR-Exon20-NPG or Ba/F3-EGFR-Exon20-ASV) can proliferate in the absence of IL-3. The anti-proliferative activity of compounds were determined as follows: BaF3-EGFR-Exon20 cells (NPG or ASV) seeded in 96 well plates (2500 cells/well) were treated with test compound (dissolved in DMSO) at a series of concentrations (4-fold dilution, top concentration: 10,000 nM). The plates were incubated for 72 h in a 37° C. incubator with 5% CO2, and the number of viable cells in each well were measured indirectly by CellTiter 96® Aqueous One Solution Cell Proliferation Assay (Promega) This assay is a colorimetric method for determining the number of viable cells through measurement of their metabolic activity by detection of enzymatic conversion of tetrazolium salts into blue formazan derivatives. Reagent (20 μL) was added into each well, and the plates were returned to the incubator for 2 h. The absorbance in each well was then measured at 490 nm using an Envision plate reader (Perkin Elmer).

Chain of Her2 exon 20 YVMA insertion (A775_G776ins YVMA) (P04626 other isoform, or with tags, fused parts or gaps ins YVMA behind 775): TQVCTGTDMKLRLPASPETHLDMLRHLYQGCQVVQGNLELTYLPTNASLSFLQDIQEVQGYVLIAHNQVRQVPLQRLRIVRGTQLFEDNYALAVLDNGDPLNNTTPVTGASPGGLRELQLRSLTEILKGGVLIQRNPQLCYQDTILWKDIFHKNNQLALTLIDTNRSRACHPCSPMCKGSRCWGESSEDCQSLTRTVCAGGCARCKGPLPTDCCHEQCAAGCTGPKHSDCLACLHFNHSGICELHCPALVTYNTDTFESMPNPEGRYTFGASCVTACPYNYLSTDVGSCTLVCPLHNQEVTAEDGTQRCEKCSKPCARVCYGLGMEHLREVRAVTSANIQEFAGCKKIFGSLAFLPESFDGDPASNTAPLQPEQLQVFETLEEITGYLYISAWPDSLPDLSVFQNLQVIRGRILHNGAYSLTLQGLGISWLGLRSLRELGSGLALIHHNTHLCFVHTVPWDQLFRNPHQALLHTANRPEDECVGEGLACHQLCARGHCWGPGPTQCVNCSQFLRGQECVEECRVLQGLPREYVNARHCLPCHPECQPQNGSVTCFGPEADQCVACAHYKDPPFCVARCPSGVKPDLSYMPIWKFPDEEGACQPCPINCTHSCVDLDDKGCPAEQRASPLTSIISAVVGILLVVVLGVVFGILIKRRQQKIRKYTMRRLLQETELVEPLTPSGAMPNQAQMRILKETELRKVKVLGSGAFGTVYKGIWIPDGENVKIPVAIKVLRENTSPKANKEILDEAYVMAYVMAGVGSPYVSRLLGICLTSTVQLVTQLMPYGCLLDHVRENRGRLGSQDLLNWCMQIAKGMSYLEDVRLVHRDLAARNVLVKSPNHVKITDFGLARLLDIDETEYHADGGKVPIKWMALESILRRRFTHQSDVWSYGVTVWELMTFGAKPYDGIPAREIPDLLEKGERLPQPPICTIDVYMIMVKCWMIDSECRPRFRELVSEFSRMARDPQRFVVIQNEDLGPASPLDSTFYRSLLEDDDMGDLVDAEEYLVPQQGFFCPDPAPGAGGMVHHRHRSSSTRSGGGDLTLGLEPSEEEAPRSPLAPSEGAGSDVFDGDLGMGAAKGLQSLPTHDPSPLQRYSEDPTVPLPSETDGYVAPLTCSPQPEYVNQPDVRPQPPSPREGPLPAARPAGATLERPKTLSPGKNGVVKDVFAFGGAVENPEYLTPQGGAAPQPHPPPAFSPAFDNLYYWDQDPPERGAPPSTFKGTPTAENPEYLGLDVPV
Chain of human EGFR L858R and T790M double mutation (LT) (P00533 25-1210 T790M/L858R): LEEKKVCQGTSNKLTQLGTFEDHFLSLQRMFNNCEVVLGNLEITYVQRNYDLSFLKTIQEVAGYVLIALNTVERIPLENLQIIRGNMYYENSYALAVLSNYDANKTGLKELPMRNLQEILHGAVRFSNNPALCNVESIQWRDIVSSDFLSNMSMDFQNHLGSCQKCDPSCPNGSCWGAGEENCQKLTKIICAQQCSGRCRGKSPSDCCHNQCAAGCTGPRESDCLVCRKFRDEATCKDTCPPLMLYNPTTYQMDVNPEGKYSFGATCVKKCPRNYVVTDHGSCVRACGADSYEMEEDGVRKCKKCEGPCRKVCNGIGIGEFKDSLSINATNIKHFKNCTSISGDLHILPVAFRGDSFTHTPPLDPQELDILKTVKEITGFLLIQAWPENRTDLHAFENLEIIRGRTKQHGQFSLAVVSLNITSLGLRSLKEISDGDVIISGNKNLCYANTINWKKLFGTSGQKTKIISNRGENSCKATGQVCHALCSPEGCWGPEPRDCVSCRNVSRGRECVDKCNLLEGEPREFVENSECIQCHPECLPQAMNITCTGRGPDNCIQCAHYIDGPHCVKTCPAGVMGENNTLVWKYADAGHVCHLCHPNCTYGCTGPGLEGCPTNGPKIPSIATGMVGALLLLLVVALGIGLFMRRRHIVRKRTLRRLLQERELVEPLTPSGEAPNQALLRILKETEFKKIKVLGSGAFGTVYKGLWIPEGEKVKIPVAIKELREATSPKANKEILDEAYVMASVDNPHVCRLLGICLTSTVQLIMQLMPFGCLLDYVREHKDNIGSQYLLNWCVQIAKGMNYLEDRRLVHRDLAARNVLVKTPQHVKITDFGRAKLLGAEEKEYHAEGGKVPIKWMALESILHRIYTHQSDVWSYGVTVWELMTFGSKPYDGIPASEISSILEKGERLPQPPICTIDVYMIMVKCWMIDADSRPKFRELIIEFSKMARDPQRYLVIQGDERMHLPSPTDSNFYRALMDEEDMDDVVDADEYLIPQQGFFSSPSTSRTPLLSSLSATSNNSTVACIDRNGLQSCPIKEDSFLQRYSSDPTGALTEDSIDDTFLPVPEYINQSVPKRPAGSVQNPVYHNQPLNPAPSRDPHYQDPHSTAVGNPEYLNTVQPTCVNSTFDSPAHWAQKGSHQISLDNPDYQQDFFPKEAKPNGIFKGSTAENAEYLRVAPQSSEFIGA
Chain of human EGFR exon 20 insertion ASV (V769_D770insASV) (P00533 other isoform, or with tags, fused parts or gaps ins ASV behind 769): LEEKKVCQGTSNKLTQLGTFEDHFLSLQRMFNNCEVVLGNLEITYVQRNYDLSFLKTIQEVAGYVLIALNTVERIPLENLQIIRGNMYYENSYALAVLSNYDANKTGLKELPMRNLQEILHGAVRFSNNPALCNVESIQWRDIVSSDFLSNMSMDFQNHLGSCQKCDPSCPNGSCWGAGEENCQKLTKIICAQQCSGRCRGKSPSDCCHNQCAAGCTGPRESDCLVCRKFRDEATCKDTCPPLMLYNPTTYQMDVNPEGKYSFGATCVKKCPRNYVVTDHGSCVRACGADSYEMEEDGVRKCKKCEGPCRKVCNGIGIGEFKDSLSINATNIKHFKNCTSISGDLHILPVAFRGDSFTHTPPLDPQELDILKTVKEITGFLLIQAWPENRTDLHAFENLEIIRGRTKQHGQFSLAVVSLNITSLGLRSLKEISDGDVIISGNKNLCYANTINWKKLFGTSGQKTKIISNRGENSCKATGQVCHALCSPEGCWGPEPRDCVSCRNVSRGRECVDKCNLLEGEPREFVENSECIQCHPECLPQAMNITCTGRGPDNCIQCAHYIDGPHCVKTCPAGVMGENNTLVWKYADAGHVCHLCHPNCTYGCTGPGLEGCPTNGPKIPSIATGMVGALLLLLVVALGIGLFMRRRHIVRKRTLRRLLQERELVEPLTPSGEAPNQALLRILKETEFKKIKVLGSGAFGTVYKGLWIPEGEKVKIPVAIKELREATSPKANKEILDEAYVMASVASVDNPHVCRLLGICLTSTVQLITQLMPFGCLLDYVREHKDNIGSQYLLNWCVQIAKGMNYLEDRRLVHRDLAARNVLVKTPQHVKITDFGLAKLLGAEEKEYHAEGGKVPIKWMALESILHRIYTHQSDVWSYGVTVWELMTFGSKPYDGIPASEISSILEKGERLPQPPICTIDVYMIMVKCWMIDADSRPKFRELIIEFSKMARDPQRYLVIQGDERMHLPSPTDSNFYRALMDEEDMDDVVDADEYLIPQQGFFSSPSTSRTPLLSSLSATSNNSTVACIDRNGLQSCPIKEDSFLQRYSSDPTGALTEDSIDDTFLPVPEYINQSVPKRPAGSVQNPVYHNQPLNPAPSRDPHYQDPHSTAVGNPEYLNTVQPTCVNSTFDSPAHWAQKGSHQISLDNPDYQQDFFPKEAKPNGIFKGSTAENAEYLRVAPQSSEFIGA
Chain of human EGFR E746-A750 deletion and T790M Mutation (DT) (P00533 other isoform, or with tags, fused parts or gaps T790M/del E746-A750): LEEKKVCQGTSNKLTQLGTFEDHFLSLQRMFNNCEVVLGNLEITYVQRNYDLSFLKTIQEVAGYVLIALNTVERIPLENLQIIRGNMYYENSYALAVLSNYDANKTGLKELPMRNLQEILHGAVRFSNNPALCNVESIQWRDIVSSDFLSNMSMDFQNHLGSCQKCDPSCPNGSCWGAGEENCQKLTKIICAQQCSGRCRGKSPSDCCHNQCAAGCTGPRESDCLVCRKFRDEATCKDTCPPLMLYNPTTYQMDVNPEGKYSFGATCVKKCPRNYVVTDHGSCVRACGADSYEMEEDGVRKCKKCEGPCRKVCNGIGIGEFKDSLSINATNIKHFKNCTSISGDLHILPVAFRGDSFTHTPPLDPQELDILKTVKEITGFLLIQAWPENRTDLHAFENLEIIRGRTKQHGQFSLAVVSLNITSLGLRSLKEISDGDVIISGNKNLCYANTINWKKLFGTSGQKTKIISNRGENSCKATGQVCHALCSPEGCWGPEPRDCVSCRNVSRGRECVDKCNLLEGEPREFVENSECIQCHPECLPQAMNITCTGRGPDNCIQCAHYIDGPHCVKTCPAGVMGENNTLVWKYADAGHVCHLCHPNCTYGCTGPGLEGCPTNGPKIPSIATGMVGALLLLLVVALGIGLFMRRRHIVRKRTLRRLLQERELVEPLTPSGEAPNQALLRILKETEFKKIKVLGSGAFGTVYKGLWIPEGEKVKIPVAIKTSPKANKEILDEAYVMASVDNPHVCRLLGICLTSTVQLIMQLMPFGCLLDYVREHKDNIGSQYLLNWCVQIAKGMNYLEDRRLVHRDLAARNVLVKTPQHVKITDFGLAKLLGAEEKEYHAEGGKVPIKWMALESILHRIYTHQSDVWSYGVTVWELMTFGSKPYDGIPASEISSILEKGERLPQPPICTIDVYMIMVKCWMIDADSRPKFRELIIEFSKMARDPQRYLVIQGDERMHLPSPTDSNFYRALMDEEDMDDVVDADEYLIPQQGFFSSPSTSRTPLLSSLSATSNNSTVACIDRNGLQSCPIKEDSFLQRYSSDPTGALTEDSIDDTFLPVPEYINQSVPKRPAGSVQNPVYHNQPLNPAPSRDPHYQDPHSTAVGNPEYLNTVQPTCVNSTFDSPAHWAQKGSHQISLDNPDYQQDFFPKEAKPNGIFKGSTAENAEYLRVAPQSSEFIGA

For orientation: IC50 means the concentration needed to halve the response being measured. For the compound `C=CC(=O)Nc1cc(Nc2nccc(-c3cn(C)c4cc(C(=O)OC(C)C)ccc34)n2)c(OC)cc1N(C)CCN(C)C` [Example 84, isopropyl 3-(2-((5-acrylamido-4-((2-(dimethylamino)ethyl)(methyl)amino)-2-methoxyphenyl)amino)pyrimidin-4-yl)-1-methyl-1H-indole-6-carboxylate], the half-inhibitory concentration (IC50) in assay [1] is less than 100 nM; in assay [2], 500 to 1000 nM; in assay [3], 500 to 1000 nM; in assay [4], less than 100 nM.

On to `C=CC(=O)Nc1cc(Nc2nccc(-c3cn(CC(N)=O)c4ccccc34)n2)c(OC)cc1N(C)CCN(C)C` [Example 70, N-(5-((4-(1-(2-amino-2-oxoethyl)-1H-indol-3-yl)pyrimidin-2-yl)amino)-2-((2-(dimethylamino)ethyl)(methyl)amino)-4-methoxyphenyl)acrylamide], for which the half-maximal inhibitory concentration (IC50) in assay [1] is less than 100 nM; in assay [2] it was less than 100 nM; in assay [3], 100 to 500 nM; in assay [4], less than 100 nM.

For `C=CC(=O)Nc1cc(Nc2ncc(CC)c(-c3cn(CC(N)=O)c4ccccc34)n2)c(OC)cc1N(C)CCN(C)C` [Example 71, N-(5-((4-(1-(2-amino-2-oxoethyl)-1H-indol-3-yl)-5-ethylpyrimidin-2-yl)amino)-2-((2-(dimethylamino)ethyl)(methyl)amino)-4-methoxyphenyl)acrylamide], the IC50 in assay [1] was less than 100 nM; in assay [2], less than 100 nM; in assay [3], 100 to 500 nM; in assay [4], less than 100 nM.

Take `C=CC(=O)Nc1cc(Nc2nccc(-c3c(C(=O)N(C)C)n(C)c4ccccc34)n2)c(OC)cc1N(C)CCN(C)C` [Example 92, 3-(2-((5-acrylamido-4-((2-(dimethylamino)ethyl)(methyl)amino)-2-methoxyphenyl)amino)pyrimidin-4-yl)-N,N,1-trimethyl-1H-indole-2-carboxamide]: the 50% inhibitory concentration (IC50) was less than 100 nM in assay [1], less than 100 nM in assay [2], 100 to 500 nM in assay [3] and less than 100 nM in assay [4].

Regarding `C=CC(=O)Nc1cc(Nc2nccc(-c3cn(C)c4cc(-c5cnn(C)c5)ccc34)n2)c(OC)cc1N(C)CCN(C)C` [Example 95, N-(2-((2-(dimethylamino)ethyl)(methyl)amino)-4-methoxy-5-((4-(1-methyl-6-(1-methyl-1H-pyrazol-4-yl)-1H-indol-3-yl)pyrimidin-2-yl)amino)phenyl)acrylamide], the IC50 in assay [1] was less than 100 nM; in assay [2], less than 100 nM; in assay [3], 100 to 500 nM; in assay [4] it was less than 100 nM.

Turning to `C=CC(=O)Nc1cc(Nc2nccc(-c3c(C(=O)NC)n(C)c4ccccc34)n2)c(OC)cc1N(C)CCN(C)C` [Example 91, 3-(2-((5-acrylamido-4-((2-(dimethylamino)ethyl)(methyl)amino)-2-methoxyphenyl)amino)pyrimidin-4-yl)-N,1-dimethyl-1H-indole-2-carboxamide], the “EGFR exon 21 L858R and T790M mutation IC50” value in assay [1] was “B (Group B compounds have an IC50 value for the indicated mutant between about 100 to about 500 nM)”. Besides, the concentration for half-maximal inhibition (IC50) in assay [2] is 100 to 500 nM; in assay [3], 500 to 1000 nM; in assay [4] it was less than 100 nM.

With `C=CC(=O)Nc1cc(Nc2nccc(-c3c(C(N)=O)n(C)c4ccccc34)n2)c(OC)cc1N(C)CCN(C)C` [Example 90, 3-(2-((5-acrylamido-4-((2-(dimethylamino)ethyl)(methyl)amino)-2-methoxyphenyl)amino)pyrimidin-4-yl)-1-methyl-1H-indole-2-carboxamide], the concentration for half-maximal inhibition (IC50) is less than 100 nM in assay [1], 100 to 500 nM in assay [2], 500 to 1000 nM in assay [3] and less than 100 nM in assay [4].

Consider `C=CC(=O)Nc1ccc(OC)c(Nc2ncc(C#N)c(-c3cn(C)c4cc(OCCC5CCCN5C)ccc34)n2)c1` (centres unmarked) [Example 23, N-(3-((5-cyano-4-(1-methyl-6-(2-(1-methylpyrrolidin-2-yl)ethoxy)-1H-indol-3-yl)pyrimidin-2-yl)amino)-4-methoxyphenyl)acrylamide], for which the IC50 in assay [2] is 100 to 500 nM; in assay [5], less than 100 nM; in assay [3], 500 to 1000 nM; in assay [4], less than 100 nM.

On to `C=CC(=O)Nc1cc(Nc2ncc(C(=O)OC(C)C)c(-c3nn(C)c4ccccc34)n2)c(OC)cc1N(C)CCN(C)C` [Example 59, isopropyl 2-((5-acrylamido-4-((2-(dimethylamino)ethyl)(methyl)amino)-2-methoxyphenyl)amino)-4-(1-methyl-1H-indazol-3-yl)pyrimidine-5-carboxylate], for which the IC50 in assay [2], in assay [5], in assay [3] and in assay [4] was less than 100 nM in each case.

Turning to `C=CC(=O)Nc1cc(Nc2nccc(-c3cn(C)c4cccc(C(=O)OC)c34)n2)c(OC)cc1N(C)CCN(C)C` [Example 80, methyl 3-(2-((5-acrylamido-4-((2-(dimethylamino)ethyl)(methyl)amino)-2-methoxyphenyl)amino)pyrimidin-4-yl)-1-methyl-1H-indole-4-carboxylate], the half-inhibitory concentration (IC50) in assay [2], in assay [5] and in assay [3] was more than 1000 nM each time. In addition, the “EGFR exon 19 deletion and T790M mutation IC50” value in assay [4] was “D (Group D compounds have an IC50 value for the indicated mutant greater than about 1 μM)”.

Take `C=CC(=O)Nc1ccc(OC)c(Nc2ncc(C#N)c(-c3cn(C)c4cc(OCC5CCCN5C)ccc34)n2)c1` (centres unmarked) [Example 21, N-(3-((5-cyano-4-(1-methyl-6-((1-methylpyrrolidin-2-yl)methoxy)-1H-indol-3-yl)pyrimidin-2-yl)amino)-4-methoxyphenyl)acrylamide]: the IC50 is 500 to 1000 nM in assay [2], less than 100 nM in assay [5], 500 to 1000 nM in assay [3] and less than 100 nM in assay [4].

On to `C=CC(=O)Nc1cc(Nc2ncc(NC(=O)C(C)C)c(-c3cn(C)c4ccccc34)n2)c(OC)cc1N(C)CCN(C)C` [Example 39, N-(2-((2-(dimethylamino)ethyl)-(methyl)amino)-5-((5-isobutyramido-4-(1-methyl-1H-indol-3-yl)pyrimidin-2-yl)amino)-4-methoxyphenyl)-acrylamide], for which the half-inhibitory concentration (IC50) in assay [2] is 100 to 500 nM; in assay [5], less than 100 nM; in assay [3] it was more than 1000 nM; in assay [4], more than 1000 nM.

With `C=CC(=O)Nc1ccc(OC)c(Nc2ncc(Cl)c(-c3cn(C)c4cc(OCCN5CCN(C)CC5)ccc34)n2)c1` [Example 18, N-(3-((5-chloro-4-(1-methyl-6-(2-(4-methylpiperazin-1-yl)ethoxy)-1H-indol-3-yl)pyrimidin-2-yl)amino)-4-methoxyphenyl)acrylamide], the half-maximal inhibitory concentration (IC50) was more than 1000 nM in assay [2], 100 to 500 nM in assay [5], more than 1000 nM in assay [3] and less than 100 nM in assay [4].

For the compound `C=CC(=O)Nc1cc(Nc2ncc(C(=O)OC)c(-c3cn(C)c4ccccc34)n2)c(OC)cc1CCCN(C)C` [Example 69, methyl 2-((5-acrylamido-4-(3-(dimethylamino)propyl)-2-methoxyphenyl)amino)-4-(1-methyl-1H-indol-3-yl)pyrimidine-5-carboxylate], the IC50 in assay [2] was 100 to 500 nM; in assay [5], less than 100 nM; in assay [3], 500 to 1000 nM; in assay [4], less than 100 nM.
